This experiment has as its system T1, Fusant-06 L-ASNase.
T1 construct: native extracellular enzyme from fusant fermentation broth; PEG/citrate ATPS then Sephadex G-100; may be recombined from both parents
The experiment is described as follows: ammonia release (Imada assay); Lineweaver-Burk plot. The format is biochemical. The following applies: L-asparagine 0.005–1.28 mM; 5 µg/mL (0.043 µM) enzyme; optimum conditions (pH and temperature not stated for the kinetics).

With `NC(=O)C[C@H](N)C(=O)O` [L-asparagine], the Km was 66.7 µM.

Values taken from article PMC9823191, “Production, characterization and techno-economic evaluation of Aspergillus fusant L-asparaginase” (AMB Express, 2023).
